From article PMC7016953 (Cells, 2020) come the findings set out here.

The test system of assay [1] is TRPC4, TRPC5, TRPA1, TRPM2, TRPM3, TRPM8, TRPV1, TRPV2, TRPV4, or TRPV4. Description: Selectivity profiling, inhibition of activator responses in the TRP channel panel. It counts as cell-based. The following applies: 100 µM, subsequent stimulation with channel-specific activators. How it is done: (§1) Human embryonic kidney 293 (HEK293) cells were stably transfected with expression plasmids that encode hTRPC3-YFP, hTRPC6-YFP, hTRPC7-YFP, mTRPC4ß-YFP, rTRPV1-CFP, rTRPV2-YFP, rTRPV3-YFP, mTRPV4-YFP, or hTRPM2 as previously described. Cell lines were cultured in Earle’s minimum essential medium (MEM; Sigma, Munich, Germany), supplemented with 10% fetal calf serum (Gibco Thermo Fisher Scientific, Darmstadt, Germany), 2 mM L-glutamine, and required concentrations of geneticin in a range of 0.4–1 mg/mL. A HEK293mTRPC5-YFP cell line was maintained and induced as described before. […] For electrophysiological and single cell [Ca^2+]i imaging experiments, PC12 cells were plated onto 25 mm poly-L-lysine-coated glass coverslips and measured 24–48 h after seeding. […]
(§2) The primary compound screen and the generation of concentration response curves in HEK293 cells or in PC12 cells were performed by using a custom-made fluorescence plate imager built into a robotic liquid handling station equipped with a 96-tip multichannel head (Freedom Evo 150, Tecan, Männedorf, Switzerland) as described previously. […] Plates were mounted on the imager, and fluorescence signals were recorded with a cooled Zyla 5.5 camera (Andor, Belfast, UK) through a 515 nm long pass filter. […] When inhibitory potencies were evaluated, a second pipetting step with the respective reference agonist was performed. […]

Assay [2] relates to T1, heteromeric TRPC3:TRPC6 channel complexes.
T1 construct: expressed in transfected cells; host or cells: HEK293, stably co-transfected
Description: Fluo-4 Ca2+ influx assay in HEK293 cells co-expressing TRPC3 and TRPC6. In kind it is cell-based. The following applies: fluo-4 concentration response analysis. The procedure:
All fluorometric Ca^2+ assays were done in (4-(2-hydroxyethyl)-1-piperazineethanesulfonic acid) (HEPES)-buffered saline (HBS), containing 132 mM NaCl, 6 mM KCl, 1 mM MgCl2, 1 mM CaCl2, 5.5 mM D-glucose, 10 mM HEPES, and 0.035% bovine serum albumin (BSA) adjusted to pH 7.4 with NaOH. For measurements in Ca^2+-free bath solutions, a modified HBS without CaCl2 was supplemented with 200 µM ethylene glycol-bis(β-aminoethyl ether)-N,N,N′,N′-tetraacetic acid (EGTA).
The primary compound screen and the generation of concentration response curves in HEK293 cells or in PC12 cells were performed by using a custom-made fluorescence plate imager built into a robotic liquid handling station equipped with a 96-tip multichannel head (Freedom Evo 150, Tecan, Männedorf, Switzerland) as described previously. To this end, trypsinized cell suspensions were loaded with 4 µM fluo-4/AM (Invitrogen, Thermo Fisher Scientific, Waltham, MA, U.S.A.) in cell culture medium for 30 min at 37 °C. After brief centrifugation, cells were resuspended in HBS and dispensed into black pigmented, clear-bottom 384-well plates (Greiner µClear, Frickenhausen, Germany). Plates were mounted on the imager, and fluorescence signals were recorded with a cooled Zyla 5.5 camera (Andor, Belfast, UK) through a 515 nm long pass filter. The image acquisition was controlled by the µManager software (http://micro-manager.org), and excitation with a LED array (470 nm) was synchronized by the camera trigger output. After baseline recording for about 60 s, the compound libraries or serial dilutions of activators or inhibitors were added to the cells by the liquid handling device. When inhibitory potencies were evaluated, a second pipetting step with the respective reference agonist was performed. Fluorescence intensities were calculated from image stacks for each well with ImageJ (National Institutes of Health, Bethesda, MD, U.S.A.), corrected for background signals, and normalized to the initial intensities (F/F0). […]

The test system of a further assay is T2, hTRPC7-YFP.
T2 construct: expressed in transfected cells
Put plainly: Fluo-4 Ca2+ influx assay in HEK293 cells stably expressing TRPC7. In kind it is cell-based, human. The following applies: fluo-4 concentration response analysis.

A further assay concerns T3, hTRPM2.
T3 construct: expressed in transfected cells
Description: Selectivity profiling, fluo-4 [Ca2+]i response, TRPM2. The following applies: 100 µM. In kind it is cell-based, human. The procedure:
as §1, §2

The subject of the next assay is T4, TRPC6.
T4 construct: expressed in transfected cells
Put plainly: Microfluorometric single-cell [Ca2+]i analysis, fura-2-loaded HEK cells stably expressing TRPC6. In kind it is cell-based, human. The following applies: 50 µM, standard bath 1 mM Ca2+. The procedure:
The microfluorometric single-cell [Ca^2+]i analysis was performed on an inverted epifluorescence microscope (Carl Zeiss, Jena, Germany) and calibrated as described. Cells were grown on 25 mm coverslips and loaded with 4 µM fura-2/AM (AAT Bioquest, Sunnyvale, CA, U.S.A.) in HBS containing 0.2% BSA for 30 min at 37 °C. […] Experiments were performed either in standard bath solution, containing 1 mM Ca^2+ (black lines and bars), or in a nominally Ca^2+-free HBS buffer, supplemented with 200 µM EGTA (grey lines and bars). Time courses of averaged responses (left), and statistical analysis of 6–11 independent imaging experiments with means and S.D. (right) are shown. Significant differences (p < 0.05, Student´s t-test with paired data: #, with unpaired data: *) are marked for the indicated comparisons; n.s.: difference is statistically not significant.

Take `C[C@@H]1CC[C@H]2[C@@H](C)C(=O)O[C@@H]3O[C@@]4(C)CC[C@@H]1[C@]32OO4` [artemisinin]: the “inhibition of the investigated channels compared to the solvent control” value in assay [1] is reported as “did not observe a significant inhibition”. Also, the “response of cells stably transfected with both TRPC3 and TRPC6” value in assay [2] is reported as “in a very similar fashion as HEKTRPC3-YFP cells”. Moreover, the “effect on TRPC7” value with hTRPC7-YFP is “weakly activated”. Moreover, in the assay on hTRPM2, the “[Ca2+]i response, TRPM2” value is “none of the cell lines responded”. Besides, in the assay with TRPC6, the “[Ca2+]i response in TRPC6-expressing cells” value is reported as “remained unaffected”.
